Experimental data published in patent US12403132B2, “Methods of treating bone marrow failure syndromes and compositions for use in the same” (The Board of Trustees of the Leland Stanford Junior …, priority 2020, dated 2025).

Experiments:
[1] = system: CD235+ erythroblasts; assay: CD235+ erythroid expansion of differentiating human cord blood CD34+ progenitors (shRPS19/shRPL11 DBA models), flow cytometry; type: cell-based
[2] = system: c-Myb; assay: c-Myb protein and phosphorylation by Western blot after p53 activation in Kp53A1 cells; type: cell-based, human
[3] = system: c-Myb; assay: NLK kinase and ubiquitination assays with c-Myb as substrate, Kp53A1 cells; type: cell-based, human
Source text: FIG. 4. NLK phosphorylation of c-Myb results in ubiquitination and proteasome degradation. Fetal liver CD34+ progenitors transduced with shRNA against luciferase (shLuc) or RPS19 (shRPS19) in conjunction with siRNA against NLK (siNLK) or a non-targeting sequence (NT). Cells were differentiated for 5 days and split into three aliquots. One aliquot was lysed and probed for c-Myb, NLK, RPS19 and GAPDH protein expression by western blot, while the second aliquot was subjected to qRT-PCR to examine c-Myb mRNA expression (a) The third aliquot was analyzed for NLK activity by kinase assay (b—upper) and ubiquitination assay (b—lower). Orange, blue and green bars represent the extent of NLK, Myb and raptor phosphorylation respectively. Values are expressed as a fold relative to activity in controls (shLuc/NT). White, grey and black bars designate the substrates NLK, c-Myb and raptor respectively with values designating the extent of ubiquitination observed of each substrate relative to control. (c and d) Kp53A1 cells alone, or transfected with plasmids expressing NT or siNLK were cultured for 30 h at 37 or 32° C. prior to lysis and western blotting for c-Myb, NLK and GAPDH. Myb mRNA levels were determined by qRT-PCR. (c) and NLK kinase assays and cell ubiquitination assays were performed as above. (e) Kp53A1 cells were cultured at 37 (grey bars) or 32° C. […]

[4] = system: CD11b+ myeloid cells; assay: CD11b+ myeloid expansion of differentiating human cord blood CD34+ progenitors; type: cell-based; conditions: control (shLuc), exogenous TGFβ 5 ng/ml
Method: FIG. 7. SD208 increases erythroid expansion in human model of DBA through inhibition of NLK and not TGFβ. (a) Differentiating cord blood CD34+ progenitors were transduced with shRNA against luciferase or RPS19 and treated with inhibitors at working concentrations for TGFβ inhibition every three days. Cells were counted and CD235+ erythroid cells were assessed by flow cytometry after 15 days. (b) Prior to flow cytometry, 5000 cells per group were taken from differentiating cultures for NLK kinase assay. (c) CD34+ progenitors were transduced with shRNA against luciferase or RPS19 and non-targeting or siRNA against NLK. After sorting, samples were split into two groups and either treated with vehicle or SD208 every three days. After 15 days cells were counted and subject to flow cytometry to compare the expansion of maturing CD235+ erythroid (left panel) and CD11b+ myeloid cells (right panel). […] Cells were counted and CD235+ erythroid (D—upper) and CD11b+ myeloid cell (D—lower) percentages were determined by flow cytometry. The number of erythroid or myeloid cells is expressed as a percentage of the number of that lineage with no cytokine or drug treatment.
FIG. 9. […] Cells were counted and the percentage expressing CD235+ erythroid (left) and CD11b+ myeloid (right) was determined by flow cytometry. […] Values are expressed as a fold induction relative to untreated. (Panel C) Transduced and sorted CD34+ progenitors were cultured in methylcellulose in the presence or absence of metformin for 16 days and BFU-E erythroid (left) and CFU-GM myeloid (right) colonies scored. […] To directly compare the effect of metformin in each group, metformin-treated cultures were normalized to untreated cultures and are expressed as a fold induction of the untreated control. […]
Cells were incubated with human Fc receptor binding inhibitor (#14-9161-73; eBioscience) followed by primary antibodies CD235-APC (#306607; BioLegend) and CD11b-PE/Cy5 (#101209; BioLegend). Data were collected on a DxP10 flow cytometer (Cytek) and analyzed by using FlowJo Software, v.9.7.2.

[5] = system: CD235+ erythroblasts; assay: CD235+ erythroid expansion of differentiating human cord blood CD34+ progenitors (shRPS19/shRPL11 DBA models), flow cytometry; type: cell-based; conditions: control (shLuc), exogenous TGFβ 5 ng/ml
Method: FIG. 7. […] (a) Differentiating cord blood CD34+ progenitors were transduced with shRNA against luciferase or RPS19 and treated with inhibitors at working concentrations for TGFβ inhibition every three days. Cells were counted and CD235+ erythroid cells were assessed by flow cytometry after 15 days. (b) Prior to flow cytometry, 5000 cells per group were taken from differentiating cultures for NLK kinase assay. (c) CD34+ progenitors were transduced with shRNA against luciferase or RPS19 and non-targeting or siRNA against NLK. After sorting, samples were split into two groups and either treated with vehicle or SD208 every three days. After 15 days cells were counted and subject to flow cytometry to compare the expansion of maturing CD235+ erythroid (left panel) and CD11b+ myeloid cells (right panel). (d) Cord Blood CD34+ progenitors were transduced with shRNA against luciferase (left panel) or RPS19 (right panel) differentiated in erythroid media for 15 days alone, or in the presence of SB525334 or SD208 at 5 μM. Cells were counted and CD235+ erythroid (D—upper) and CD11b+ myeloid cell (D—lower) percentages were determined by flow cytometry. The number of erythroid or myeloid cells is expressed as a percentage of the number of that lineage with no cytokine or drug treatment.
FIG. 8. […] Human cord blood CD34+ progenitors were transduced with lentivirus co-expressing GFP with shRNA against luciferase (shLuc), RPS19 (shRPS19) or RPL11 (shRPL11). After 36 hours cells GFP+ cells were differentiated in erythroid media in the presence or absence of 5 μM SD208 for 15 days. Cells were counted and assessed for cell surface expression of CD235. (a) The percentage of CD235+ cells was multiplied by the cell count and values were compared as a percentage of untreated controls. (b) Normalizing values relative to untreated RPS19-insufficiency progenitors facilitates direct comparison of erythropoiesis between untreated and SD208-treated cultures. (c) Approximately 3000 cells were removed from differentiating treatments at day 6 and NLK activity was assessed. Values were normalized to reflect a fold induction relative to untreated controls. (d) Lin-Kit+ hematopoietic progenitors were obtained from three mouse embryos expressing tetracycline-inducible shRNA against RPS19 at day E14.5 or three untreated mice, and thee mature RPL11^+/+ or three mature RPL11^+/lox mice treated with tamoxifen for eight weeks. Cells were grown in the presence or absence of doxycycline and/or SD208 for eight days prior to counting and assessing for ter119 surface expression. Values were expressed as a percentage relative to untreated controls (e) and directly comparing the effect of SD208 on erythropoiesis in ribosomal-insufficiency by expressing values relative to untreated ribosome-insufficient cultures (f). At day 5 approximately 3000 cells were assayed for NLK kinase assay (g). CD34+ HSPCs were isolated from three healthy control and three DBA patient mononuclear bone marrow aspirates by magnetic bead sorting and differentiated in the presence or absence of SD208 for 14 days. After counting the total cell population, the ratio of CD235+ erythroblasts was determined by flow cytometry and number of CD235+ erythroblasts calculated. This was expressed as a percentage of the average number of erythroid cells present in untreated healthy controls. (h) The direct effect of SD208 on erythroid expansion in DBA patient samples was calculated following normalization of untreated DBA patient samples as 1-fold, (i) At day five, 3000 cells from each of the differentiating cultures was analyzed for NLK activity by kinase assay and are expressed as a fold induction relative to untreated healthy controls.

## Cc1cccc(-c2[nH]c(C(C)(C)C)nc2-c2ccc3c(c2)OCO3)n1 [SB505124]
[1]; TGFβ-treated control and RPS19-insufficiency, 5 μM
  erythroid and myeloid expansion restored, % of cultures not treated with TGFβ: at least 95%

## CC(=O)N[C@@H](CSC(=O)[C@]1([C@@H](O)C(C)C)NC(=O)[C@H](C)[C@@H]1O)C(=O)O [lactacystin]
[2]; Kp53A1, 16 hours post p53 activation, lactacystin 10 μM, chloroquine 30 μM
  c-Myb protein levels: sustained
[2]; Kp53A1, after p53 activation, up to 48 h
  c-Myb phosphorylation: sustained phosphorylation to 48 h

## CN[C@@H]1C[C@H]2O[C@@](C)([C@@H]1OC)n1c3ccccc3c3c4c(c5c6ccccc6n2c5c31)C(=O)NC4 [staurosporine]
[3]; 1 µM
  c-Myb phosphorylation, fold increase relative to controls: 1.3 fold
[3]; Kp53A1 lysate with elevated p53 activity, 1 μM staurosporine, 7.4-fold without inhibitor
  c-Myb ubiquitination, fold of control: 2.3 fold

## TGFβ: exogenous TGFβ (5 ng/ml)
[4]
  reduction of myeloid progenitors: 80%
[1]; RPS19-insufficient progenitors, exogenous TGFβ
  additional reduction of erythroid expansion: 86%
[5]
  reduction of erythroid progenitors: 85%
